Source: patent US20230257372A1 (CHONG KUN DANG PHARMACEUTICAL CORP., priority 2020, published 2023)

Columns and labels:
human recombinant HDAC1 = target: T1, human recombinant HDAC1 (Homo sapiens, UniProt Q13547); test: HDAC1 enzyme activity inhibition (HDAC Fluorimetric Drug Discovery Kit); format: biochemical; details: human recombinant HDAC1; IC50 calculated with GraphPad Prism; read-out: HDAC1
T1 construct: purchased Enzo Life Science, Inc. BML-SE456
Summary of the method: (§1)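 Fluorimetric deacetylase read-out. 5-fold compound dilutions; […] enzyme, 10 μM substrate; 30° C, 60 min; developer 30 min.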

human recombinant HDAC6 = target: T2, human recombinant HDAC6 (Homo sapiens, UniProt Q9UBN7); test: HDAC6 enzyme activity inhibition (HDAC Fluorimetric Drug Discovery Kit); format: biochemical; details: for HDAC6 selectivity (fold): HDAC1 IC50 / HDAC6 IC50; for IC50: human recombinant HDAC6, IC50 calculated with GraphPad Prism
T2 construct: purchased Calbiochem Inc. 382180
T2 sequence (Q9UBN7 1-1215): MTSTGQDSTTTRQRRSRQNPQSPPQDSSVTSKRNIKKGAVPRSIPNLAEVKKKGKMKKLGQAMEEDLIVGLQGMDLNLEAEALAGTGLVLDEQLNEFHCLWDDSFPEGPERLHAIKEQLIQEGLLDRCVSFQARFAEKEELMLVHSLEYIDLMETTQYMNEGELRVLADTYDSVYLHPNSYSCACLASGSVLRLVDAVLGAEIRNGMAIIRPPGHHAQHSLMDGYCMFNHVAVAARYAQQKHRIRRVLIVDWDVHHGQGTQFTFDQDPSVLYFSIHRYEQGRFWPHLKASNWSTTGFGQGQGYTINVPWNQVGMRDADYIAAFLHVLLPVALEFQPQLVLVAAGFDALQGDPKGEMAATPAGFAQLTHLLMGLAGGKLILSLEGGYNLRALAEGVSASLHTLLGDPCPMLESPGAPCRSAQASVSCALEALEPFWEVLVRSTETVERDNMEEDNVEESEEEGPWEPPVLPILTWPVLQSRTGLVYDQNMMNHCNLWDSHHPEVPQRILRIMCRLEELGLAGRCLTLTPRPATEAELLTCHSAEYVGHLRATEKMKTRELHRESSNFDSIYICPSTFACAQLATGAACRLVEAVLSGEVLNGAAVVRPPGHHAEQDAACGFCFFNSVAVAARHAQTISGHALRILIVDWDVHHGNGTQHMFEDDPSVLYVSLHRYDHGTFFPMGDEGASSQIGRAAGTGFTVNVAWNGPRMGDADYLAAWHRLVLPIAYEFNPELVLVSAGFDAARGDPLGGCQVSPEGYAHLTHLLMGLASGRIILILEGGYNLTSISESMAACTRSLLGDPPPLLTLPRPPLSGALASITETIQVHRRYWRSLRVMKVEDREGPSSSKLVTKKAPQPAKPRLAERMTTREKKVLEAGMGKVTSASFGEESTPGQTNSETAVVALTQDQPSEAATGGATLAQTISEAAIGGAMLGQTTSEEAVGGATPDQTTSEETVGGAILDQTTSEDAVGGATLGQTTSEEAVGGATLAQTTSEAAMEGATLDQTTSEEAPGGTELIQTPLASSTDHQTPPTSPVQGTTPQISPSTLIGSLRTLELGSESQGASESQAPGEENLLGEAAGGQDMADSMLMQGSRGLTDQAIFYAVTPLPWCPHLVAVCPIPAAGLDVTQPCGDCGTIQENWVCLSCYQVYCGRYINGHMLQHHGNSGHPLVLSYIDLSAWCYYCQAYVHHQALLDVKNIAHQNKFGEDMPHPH
Summary of the method: as §1

T1 sequence (Q13547 whole entry): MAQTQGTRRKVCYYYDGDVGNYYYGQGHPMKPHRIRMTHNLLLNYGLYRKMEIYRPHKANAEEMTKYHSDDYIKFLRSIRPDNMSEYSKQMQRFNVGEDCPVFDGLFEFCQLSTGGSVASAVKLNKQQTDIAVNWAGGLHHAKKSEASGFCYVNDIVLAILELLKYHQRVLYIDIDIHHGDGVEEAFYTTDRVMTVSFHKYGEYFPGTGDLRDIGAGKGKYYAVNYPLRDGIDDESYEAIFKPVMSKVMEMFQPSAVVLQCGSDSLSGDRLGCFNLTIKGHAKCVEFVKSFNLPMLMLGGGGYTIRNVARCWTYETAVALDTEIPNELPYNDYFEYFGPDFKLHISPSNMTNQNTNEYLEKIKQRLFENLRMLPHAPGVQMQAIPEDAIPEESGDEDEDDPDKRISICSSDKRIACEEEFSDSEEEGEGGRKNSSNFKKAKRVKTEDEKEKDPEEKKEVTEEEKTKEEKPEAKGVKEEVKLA

SMILES | IC50 (human recombinant HDAC1) [µM] | HDAC6 selectivity (fold) (human recombinant HDAC6) | IC50 (human recombinant HDAC6) [nM]
FC(F)c1nnc(-c2ccc(Cn3cc(-c4ccc5[nH]cc(CN6CCOCC6)c5c4)nn3)cc2)o1 [Compound 4186, 4-((5-(1-(4-(5-(difluoromethyl)-1,3,4-oxadiazol-2-yl)benzyl)-1H-1,2,3-triazol-4-yl)-1H-indol-3-yl)methyl)morpholine] | > 50 | 4464 | 11.2
FC(F)(F)c1nnc(-c2ccc(Cn3nnc(-c4cccs4)n3)nc2)o1 [Compound 4233] | > 50 | 3846 | 13
FC(F)(F)c1nnc(-c2ccc(Cn3nnc(-c4ccccc4)n3)nc2)o1 [Compound 4235] | > 50 | 290 | 172
OC1(c2cn(Cc3ccc(-c4nnc(C(F)F)o4)cn3)nn2)CCOC1 (stereo not drawn) [Compound 4277, 3-(1-((5-(5-(difluoromethyl)-1,3,4-oxadiazol-2-yl)pyridin-2-yl)methyl)-1H-1,2,3-triazol-4-yl)tetrahydrofuran-3-ol] | > 50 | 212 | 235
OC1(c2cn(Cc3ccc(-c4nnc(C(F)F)o4)cc3F)nn2)COC1 [Compound 4278, 3-(1-(4-(5-(difluoromethyl)-1,3,4-oxadiazol-2-yl)-2-fluorobenzyl)-1H-1,2,3-triazol-4-yl)oxetan-3-ol] | > 50 | 160 | 311
OC1(c2cn(Cc3ccc(-c4nnc(C(F)F)o4)cc3F)nn2)CCOC1 (stereo not drawn) [Compound 4279, 3-(1-(4-(5-(difluoromethyl)-1,3,4-oxadiazol-2-yl)-2-fluorobenzyl)-1H-1,2,3-triazol-4-yl)tetrahydrofuran-3-ol] | > 50 | 182 | 274
FC(F)c1nnc(-c2ccc(Cn3cc(C4(F)CCOC4)nn3)nc2)o1 (stereo not drawn) [Compound 4281, 2-(difluoromethyl)-5-(6-((4-(3-fluorotetrahydrofuran-3-yl)-1H-1,2,3-triazol-1-yl)methyl)pyridin-3-yl)-1,3,4-oxadiazole] | > 50 | 412 | 121
Fc1cc(-c2nnc(C(F)F)o2)ccc1Cn1cc(C2(F)COC2)nn1 [Compound 4282, 2-(difluoromethyl)-5-(3-fluoro-4-((4-(3-fluorooxetan-3-yl)-1H-1,2,3-triazol-1-yl)methyl)phenyl)-1,3,4-oxadiazole] | > 50 | 209 | 238
Fc1cc(-c2nnc(C(F)F)o2)ccc1Cn1cc(C2(F)CCOC2)nn1 (stereo not drawn) [Compound 4283, 2-(difluoromethyl)-5-(3-fluoro-4-((4-(3-fluorotetrahydrofuran-3-yl)-1H-1,2,3-triazol-1-yl)methyl)phenyl)-1,3,4-oxadiazole] | > 50 | 203 | 246

The remaining lines, values ahead:

IC50 (human recombinant HDAC1) [µM] | HDAC6 selectivity (fold) (human recombinant HDAC6) | IC50 (human recombinant HDAC6) [nM] | SMILES
> 50 | 1400 | 35.7 | Cc1ccncc1-c1cn(Cc2ccc(-c3nnc(C(F)F)o3)cn2)nn1 [Compound 4181, 2-(difluoromethyl)-5-(6-((4-(4-methylpyridin-3-yl)-1H-1,2,3-triazol-1-yl)methyl)pyridin-3-yl)-1,3,4-oxadiazole]
> 50 | 896 | 55.8 | FC(F)c1nnc(-c2ccc(Cn3cc(-c4ccc(Br)nc4)nn3)nc2)o1 [Compound 4183, 2-(6-((4-(6-bromopyridin-3-yl)-1H-1,2,3-triazol-1-yl)methyl)pyridin-3-yl)-5-(difluoromethyl)-1,3,4-oxadiazole]
> 50 | 1291 | 38.7 | Fc1cnccc1-c1cn(Cc2ccc(-c3nnc(C(F)F)o3)cn2)nn1 [Compound 4184, 2-(difluoromethyl)-5-(6-((4-(3-fluoropyridin-4-yl)-1H-1,2,3-triazol-1-yl)methyl)pyridin-3-yl)-1,3,4-oxadiazole]
> 50 | 1298 | 38.5 | CN1CCc2ccc(-c3cn(Cc4ccc(-c5nnc(C(F)F)o5)cn4)nn3)cc2C1 [Compound 4209, 2-(difluoromethyl)-5-(6-((4-(2-methyl-1,2,3,4-tetrahydroisoquinolin-7-yl)-1H-1,2,3-triazol-1-yl)methyl)pyridin-3-yl)-1,3,4-oxadiazole]
> 50 | 1039 | 48.1 | CCN1CCc2ccc(-c3cn(Cc4ccc(-c5nnc(C(F)F)o5)cn4)nn3)cc2C1 [Compound 4211, 2-(difluoromethyl)-5-(6-((4-(2-ethyl-1,2,3,4-tetrahydroisoquinolin-7-yl)-1H-1,2,3-triazol-1-yl)methyl)pyridin-3-yl)-1,3,4-oxadiazole]
> 50 | 1602 | 31.2 | FC(F)c1nnc(-c2ccc(Cn3cc(-c4ccc5c(c4)CN(C4CCC4)CC5)nn3)nc2)o1 [Compound 4212, 2-(6-((4-(2-cyclobutyl-1,2,3,4-tetrahydroisoquinolin-7-yl)-1H-1,2,3-triazol-1-yl)methyl)pyridin-3-yl)-5-(difluoromethyl)-1,3,4-oxadiazole]
> 50 | 1730 | 28.9 | FC(F)c1nnc(-c2ccc(Cn3cc(-c4ccc5c(c4)CN(C4COC4)CC5)nn3)nc2)o1 [Compound 4213, 2-(difluoromethyl)-5-(6-((4-(2-(oxetan-3-yl)-1,2,3,4-tetrahydroisoquinolin-7-yl)-1H-1,2,3-triazol-1-yl)methyl)pyridin-3-yl)-1,3,4-oxadiazole]
> 50 | 1742 | 28.7 | CN(C)CCC(=O)Nc1cccc(-c2cn(Cc3ccc(-c4nnc(C(F)F)o4)cn3)nn2)c1 [Compound 4229, N-(3-(1-((5-(5-(difluoromethyl)-1,3,4-oxadiazol-2-yl)pyridin-2-yl)methyl)-1H-1,2,3-triazol-4-yl)phenyl)-3-(dimethylamino)propanamide]
> 50 | 2173 | 23 | CN(C)CC(=O)Nc1cccc(-c2cn(Cc3ccc(-c4nnc(C(F)F)o4)cn3)nn2)c1 [Compound 4230, N-(3-(1-((5-(5-(difluoromethyl)-1,3,4-oxadiazol-2-yl)pyridin-2-yl)methyl)-1H-1,2,3-triazol-4-yl)phenyl)-2-(dimethylamino)acetamide]
> 50 | 914 | 54.7 | CN(C)C(C)(C)C(=O)Nc1cccc(-c2cn(Cc3ccc(-c4nnc(C(F)F)o4)cn3)nn2)c1 [Compound 4231, N-(3-(1-((5-(5-(difluoromethyl)-1,3,4-oxadiazol-2-yl)pyridin-2-yl)methyl)-1H-1,2,3-triazol-4-yl)phenyl)-2-(dimethylamino)-2-methylpropanamide]
> 50 | 143 | 349 | OC1(c2cn(Cc3ccc(-c4nnc(C(F)F)o4)cn3)nn2)COC1 [Compound 4276, 3-(1-((5-(5-(difluoromethyl)-1,3,4-oxadiazol-2-yl)pyridin-2-yl)methyl)-1H-1,2,3-triazol-4-yl)oxetan-3-ol]
> 50 | 292 | 171 | FC(F)c1nnc(-c2ccc(Cn3cc(C4(F)COC4)nn3)nc2)o1 [Compound 4280, 2-(difluoromethyl)-5-(6-((4-(3-fluorooxetan-3-yl)-1H-1,2,3-triazol-1-yl)methyl)pyridin-3-yl)-1,3,4-oxadiazole]
> 50 | 1915 | 26.1 | FC(F)c1nnc(-c2ccc(Cn3cc(-c4ccc(-n5ccnc5)cc4)nn3)nc2)o1 [Compound 4284, 2-(6-((4-(4-(1H-imidazol-1-yl)phenyl)-1H-1,2,3-triazol-1-yl)methyl)pyridin-3-yl)-5-(difluoromethyl)-1,3,4-oxadiazole]
